A word on the chromatographic logP: it is a lipophilicity value derived from retention on a column.

Here are results for 17 compounds from patent US20110245242A1, “Heterocyclically Substituted Anilinopyrimides” (Bayer CropScience AG, priority 2008, published 2011).

Data set [1] in a line: log P by LC-MS, method [b], acid range pH 2.7. The settings on record: pH 2.7. The format is physicochemical. The procedure: The log P values were measured in accordance with EEC Directive 79/831 Annex V.A8 by HPLC (High Performance Liquid Chromatography) on reversed-phase columns (C 18) using the methods below:
[b] The LC-MS determination in the acid range was carried out at pH 2.7 using the mobile phases 0.1% aqueous formic acid and acetonitrile (contains 0.1% formic acid)
linear gradient from 10% acetonitrile to 95% acetonitrile.

Data set [2] has as its system Fusarium proliferatum. The data set can be described thus: Production of Fumonisin FB1 by Fusarium proliferatum (microtitre plates; FB1 by HPLC-MS/MS, growth by OD620). In kind it is cell-based. Particulars: for pI50 Fum: FB1 concentration in liquid medium after 6 days at 20° C., HPLC-MS/MS; for pI50 growth: OD620 at the beginning and after 6 days.
Data set [3] in a line: physchem. The format is physicochemical. Particulars: pH 7.8. The procedure: The log P values were measured in accordance with EEC Directive 79/831 Annex V.A8 by HPLC (High Performance Liquid Chromatography) on reversed-phase columns (C 18) using the methods below: [c] The LC-MS determination in the neutral range was carried out at pH 7.8 using the mobile phases 0.001 molar aqueous ammonium bicarbonate solution and acetonitrile linear gradient from 10% acetonitrile to 95% acetonitrile.

The nature of data set [4]: log P by HPLC on reversed-phase columns (C 18), method [a], acidic range pH 2.3. The format is physicochemical. The settings on record: for chromatographic logP: pH 2.3, log P (pH 2.3). The procedure:
The log P values were measured in accordance with EEC Directive 79/831 Annex V.A8 by HPLC (High Performance Liquid Chromatography) on reversed-phase columns (C 18) using the methods below: [a] The determination was carried out in the acidic range at pH 2.3 using the mobile phases 0.1% aqueous phosphoric acid and acetronitrile linear gradient from 10% acetonitrile to 95% acetronitrile.

For the compound `CC1CCC(=O)N1c1cccc(Nc2ncc(Br)c(NC3CCC3)n2)c1` (stereo not shown) [Example 36], in data set [1], the log p was 1.97[b]. Besides, in data set [2], the “pI50 Fum” value is given as 6.2 and the pI50 growth is listed as 5.3.
With `CC(C)Nc1nc(Nc2cccc(N3CCOC3=O)c2)ncc1Br` [Example 146], in data set [1], the log p is 1.63[b]. The pI50 growth in data set [2] was 5.
Take `CCOC(=O)N(c1cccc(N2CCCC2=O)c1)c1ncc(Cl)c(NC2CC2)n1` [Example 330, Ethyl [5-chloro-4-(cyclopropylamino)pyrimidin-2-yl][3-(2-oxopyrrolidin-1-yl)phenyl]-carbamate]: the values for the chromatographic logP in data set [1], in data set [3] and in data set [4] were 2.04, 2.24 and 2.04, respectively.
Turning to `CC1COC(=O)N1c1cccc(Nc2ncc(Br)c(NCC3CC3)n2)c1` (stereo not shown) [Example 131], the log p in data set [1] is 1.75[b]. In data set [2], the “pI50 Fum” value was determined as 6 and the pI50 growth is listed as 5.3.
Take `CC(C)Nc1nc(Nc2cccc(N3CCOC3=O)c2)ncc1Cl` [Example 138]: the log p in data set [1] is 1.56[b]. Further, in data set [2], the “pI50 Fum” value stood at 5 and the pI50 growth is listed as 4.9.
On to `CC1COC(=O)N1c1cccc(Nc2ncc(C(F)(F)F)c(NC3CC3)n2)c1` (stereo not shown) [Example 19], for which, in data set [1], the log p was 2.4[b]. Also, the “pI50 Fum” value in data set [2] came out at 6.2.
Consider `CC1(C)CC(=O)N(c2cccc(Nc3ncc(Cl)c(NC4CC4(C)C)n3)c2)C1=O` (stereo not shown) [Example 122], for which the log p is 2.42[b] in data set [1], 3.28[c]; in data set [3] and 2.42[a]; in data set [4] (pH 2.3).
On to `CN1CCN(c2cccc(Nc3ncc(Cl)c(NC4CC4(C)C)n3)c2)C1=O` (stereo not shown) [Example 313], for which the log p was 1.93[b] in data set [1], 3.06[c]; in data set [3] and 1.93[a]; in data set [4] (pH 2.3).
`CC(Nc1nc(Nc2cccc(N3CCCC3=O)c2)ncc1C(F)(F)F)C(F)(F)F` (stereo not shown) [Example 220, 1-[3-({5-(Trifluoromethyl)-4-[(1,1,1-trifluoropropan-2-yl)amino]pyrimidin-2-yl}amino)phenyl]-pyrrolidin-2-one]: the figures for the chromatographic logP in data set [1], in data set [3] and in data set [4] were 3.08, 3.05 and 3.08, respectively.
In the case of `CC1COC(=O)N1c1cccc(Nc2ncc(Cl)c(NC3CC3(C)C)n2)c1` (stereo not shown) [Example 120], the figures for the log p in data set [1], in data set [3] and in data set [4] (pH 2.3) were 2.15[b], 3.12[c]; and 2.15[a];, respectively.
With `O=C1CCC(CO)N1c1cccc(Nc2ncc(Cl)c(NC3CC3)n2)c1` (stereo not shown) [Example 136], the log p in data set [3] was 1.6[c]; in data set [4] (pH 2.3), 0.96[a];.
The corresponding values for `O=C1CCCN1c1cccc(Nc2ncc(Cl)c(NCC(F)F)n2)c1` [Example 44] are 2.19[c] and 1.64[a];.
With `CC(C)OC(=O)N(c1cccc(N2CCCC2=O)c1)c1ncc(Cl)c(NC2CC2)n1` [Example 329, Isopropyl [5-chloro-4-(cyclopropylamino)pyrimidin-2-yl][3-(2-oxopyrrolidin-1-yl)phenyl]carbamate], the chromatographic logP is 2.24 in data set [1], 2.55 in data set [3] and 2.24 in data set [4].
With `C=CCNc1nc(Nc2ccc(N3CCOC3=O)cc2)ncc1Cl` [Example 15], the values for the log p in data set [3] and in data set [4] (pH 2.3) were 2.25[c] and 1.25[a];, respectively.
Consider `CC(=O)N(c1cccc(N2CCCC2=O)c1)c1ncc(Cl)c(NCC2CC2)n1` [Example 184], for which the values for the log p in data set [1] and in data set [3] were 2.35[b] and 2.38[c];, respectively. Besides, the “log P (pH 2.3)” value in data set [4] (pH 2.3) was 2.35.
Consider `CC1CC(=O)N(c2cccc(Nc3ncc(Cl)c(NC4CC4(C)C)n3)c2)C1=O` (stereo not shown) [Example 121], for which the log p in data set [1] was 2.13[b]; in data set [3], 2.92[c];; in data set [4] (pH 2.3), 2.13[a];.
The matching figures for `CC1(C)CC1Nc1nc(Nc2cccc(N3CCCC3=O)c2)ncc1Cl` (stereo not shown) [Example 127]: 1.98[b], 2.99[c]; and 1.98[a];.
